Consider one molecule from patent US6518282B1, “4-Arylpiperidine derivatives for the treatment of pruritus” (Pfizer Inc., priority 1999, dated 2003).

For the assay, the system named is hind leg scratching behaviour induced in rats by the administration of a known pruritogenic agent. The note with it: rats challenged s.c. with 5-methoxytryptamine hydrochloride (4 mg/3 mL/kg); test compound by subcutaneous injection in aqueous micelle formulation; scratching score totalled after 25 minutes vs control group.

Description: The compounds of the invention are evaluated for their activity as antipruritic agents by measuring their ability to inhibit the hind leg scratching behaviour induced in rats by the administration of a known pruritogenic agent. […] The test is performed as follows:
Male Wistar rats (approximately 150 g body weight) are challenged with a pruritogen by subcutaneous injection of 5-methoxytryptamine hydrochloride (4 mg/3 mL/kg) dissolved in physiological saline into the scruff of the neck. At this dose a constant and quantifiable hindleg scratching response lasting up to 90 minutes is obtained.
The test compound is administered to the test animals by subcutaneous injection in an aqueous micelle formulation. The test compound is prepared in the following manner. […] The compounds can be administered pre- or post-challenge or may be administered at the same time as the pruritogenic challenge.
After the pruritogen challenge has been administered, hindleg scratching is scored for each animal by recording the presence or absence of scratching during each 30 second interval as 1 or 0 scored respectively. The score for each animal is totalled after 25 minutes (maximum score 50).

Regarding `CCOCCN1CC[C@@](C)(c2cccc(O)c2)[C@H](C)C1` (racemic) [Example 5], the anti-pruritic activity entry is on record as “display anti-pruritic activity”.
